Holding throughout (format): in vivo, mouse
In assay [1] the test system is 20-month-old aged female C57BL/6 mice. Put plainly: Metabolic health in aged mice (body weight, composition, intake, lipids, IPGTT, IPITT, gene expression). The protocol:
For the food and water intake measurement, mice were divided into individual animal cages individually for 3 days for stabilizing the animals, and then daily consumption was recorded. The values were calculated by adjusting for body weight.
Body composition was measured by Minispec LF50 TD-NMR (Bruker, MA, USA) based on nuclear magnetic resonance methods. Briefly, mice were anesthetized for the duration of the procedure by 3% isoflurane (Zoctis, London, UK) and placed in the scanning chamber in the prone position, with the limbs and tail stretched away from the body. The analysis would be conducted by default software per manufacturer's protocol. The vascular networks […] were quantified by in vivo micro-computed tomography (U-CT, Milabs, Netherlands). Briefly, mice intravenously received 150 μL ExiTron™ nano 12000 (#130-095-698, Miltonic Biotec GmbH, Bergisch Gladbach, Germany), and then mice were anesthetized with isoflurane before being positioned on the scanning chamber. After scanning, the blood vessels were analyzed by a curved multiplanar reconstruction algorithm by using Osirix software (Bernex, Switzerland).
Mice fasted 16 hours and 2 hours before performing an IPGT test and IPIT test, respectively. IPGTT was performed by intraperitoneal injection of fasted mice with 1% body weight of sterile glucose/PBS (20% weight/volume). IPITT was performed by intraperitoneal injection of fasted mice with insulin (0.75 unit/kg body weight) (#12585014, Gibco). Blood glucose levels were measured at indicative timepoints after injection by a blood glucometer (countour plus, Ascensia Diabetes Care, Hong Kong).
(§1) Serum was collected by cardiac puncture upon sacrifice.
(§2) RNAs were purified by using the TRIzol® (#15596018, Invitrogen) and chloroform method (#C7559, Sigma-Aldrich) and reversed transcribed using High-Capacity cDNA Reverse Transcription Kit (#4368814, Applied Biosystems, Foster City, CA, USA). The quantitative RT-PCR was conducted with universal probe system (Roche Life Science, Indianapolis, IN, USA) by using a QuantStudio™ 7 Flex Real-Time PCR System (Applied Biosystems) and was normalized by the expression of GAPDH.

Assay [2] shares this test system. Put plainly: Aging-related skeletal muscle wasting in aged mice. The protocol:
RIPA buffer (#ab156034, Abcam) containing 1X protease/phosphatase inhibitor (#1861281, Thermo Fisher Scientific) was used to lyse samples. Protein content was measured by BCA Protein Assay Kit (#23225, Thermo Fisher Scientific). Samples were loaded and separated in polyacrylamide gels and then transferred to PVDF membranes (#IPVH00010, Merck Millipore, Massachusetts, USA). The membranes were incubated with 5% BSA at room temperature for one hour and then incubated with primary antibodies overnight at 4° C., and then incubated with HRP-conjugated secondary antibodies (#SA00001-1, #SA100002-1, Proteintech, Rosemont, IL, USA) for one hour at room temperature. Signals were detected by the chemiluminescent substrate (#34095, Thermo Fisher Scientific) and were acquired by the ChemiDoc MP imaging system (Bio-Rad, Hercules, CA, USA).
as §1, §2
To investigate whether GB improves healthspan, we administered GB to 20-month-old aged mice, equivalent to 70-80-year-old humans, which is more relevant to potential clinical applications than intervention starting from young adulthood (Wang, S., Lai, X., Deng, Y. & Song, Y. Correlation between mouse age and human age in anti-tumor research: Significance and method establishment. Life Sci 242, 117242, doi: 10.1016/j.lfs.2019.117242 (2020)). After GB administration for two months, we assessed the healthspan domains in terms of sarcopenia, physical activity, metabolic health, frailty index, and inflammation (FIG. 2A) according to the criteria in clinical practice (Shamliyan, T., Talley, K. M., Ramakrishnan, R. & Kane, R. L. Association of frailty with survival: a systematic literature review. Ageing Res Rev 12, 719-736, doi: 10.1016/j.arr.2012.03.001 (2013)). As expected, circulating osteocalcin levels were decreased in aged mice, while GB administration increased osteocalcin levels (FIG. 2B, p<0.0001) toward the levels of those in young mice. […] In line with muscle loss, aging led to a decreased in total protein content (FIG. 2H, p<0.0001) in skeletal muscle with upregulation of muscle atrophy markers, Fbxo32 and Trim63, at transcript (FIG. 2K, p<0.0001 and=0.0005, respectively) and protein levels. (FIG. 2L, p=0.0182 and 0.0003, respectively). […] GB reversed the infiltration of adipose-like tissues by aging (FIGS. 2D and 2G, p=0.0012). […] GB administration reversed aging-related muscle wasting (FIG. 2K).

For assay [3], the system named is gastrocnemius (GA) muscle. The experiment in a line: Ex vivo muscle contractility and fatigability of GA muscle from treated aged mice. Particulars: GB 2 months. As for the experimental part: For the ex vivo muscle function test, the isolated right side gastrocnemius (GA) muscle were incubated in Krebs buffer at room temperature and with 95% O2 and 5% CO2 for five minutes. GA muscle received stimuli three times under the optimal length to evaluate twitch force. Three 150 Hz continuous stimuli were given to evaluate tetanic force. Twitch force and tetanic force were normalized to the cross-section area (CSA) of GA muscle. GA muscle fatigue was measured by repeated isometric tetanic contraction every 5 seconds for a total of 60 contractions. Five minutes and ten minutes after fatigue protocol, the maximal tetanic force was measured to assess post-fatigue recovery. All of the results were recorded with the Dynamic Muscle Control system (DMC v5.4; Aurora Scientific, Inc.), and results were analyzed by the Dynamic Muscle Analysis system (DMA v3.2; Aurora Scientific, Inc.).

[4] abbreviates: aged mice, GB 2 months, p<0.0001.
[5] abbreviates: among the three groups (young, vehicle-aged, GB-aged).

Each structure is given as a SMILES string.

As to `CC1C(=O)OC2C(O)C34C5CC(C(C)(C)C)C36C(OC(=O)C6O)OC4(C(=O)O5)C12O` (centres unmarked) [GB, Ginkgolide B], the “food and water consumptions” value in assay [1] (aged mice, GB 2 months vs vehicle, p=0.5127 and 0.9368) was “not improved”. Further, in assay [1] (setting [4]), the lean mass result is on record as “increase” and the whole-body fat mass result is recorded as “decrease”. Besides, the “expression of Pkm in aged skeletal muscle” value in assay [1] (aged mice, GB 2 months, p<0.0001, not in aged liver) is on record as “restored”. Also, the “expression of Glut4 in aged skeletal muscle” value in assay [1] (aged mice, GB 2 months, p=0.0035, not in aged liver) is “restored”. The “aging-related alteration in serum total cholesterol level” value in assay [1] (aged mice, GB 2 months, p=0.0284) is on record as “reversed”. Besides, the “aging-related glucose intolerance (IPGTT)” value in assay [1] (aged mice, GB 2 months, p=0.0322 in AUC) is on record as “improved”. Besides, in assay [1] (aged mice, GB 2 months, p=0.0424), the “aging-related alteration in serum triglyceride level” value is “reversed”. The compound further returned a body weight reduction in assay [1] (aged mice, post-GB administration 2 months, p=0.0123) of 6%. For the same compound, in assay [1] (setting [5]), the fasting blood glucose result is listed as “no significant difference” and the “insulin sensitivity (IPITT)” value is “no difference”. Further, the circulating osteocalcin levels result in assay [2] (aged (20-month-old) female mice, GB 12 mg/kg daily oral 2 months vs vehicle-aged, p<0.0001) was “increased”. Besides, the skeletal muscle-to-body ratio result in assay [2] (aged mice, GB 12 mg/kg daily oral 2 months vs vehicle-aged) is recorded as “significantly increased”. Further, in assay [2] (aged mice, GB 12 mg/kg daily oral 2 months, p=0.0012), the “infiltration of adipose-like tissues by aging” value is “reversed”. Further, the “myofiber CSA” value in assay [2] (aged mice, quadriceps, GB 12 mg/kg daily oral 2 months vs vehicle-aged, p=0.0032) is “significantly increased”. Moreover, the “total protein content in aged skeletal muscle” value in assay [2] (gastrocnemius, aged mice, GB 12 mg/kg daily oral 2 months, p<0.0001) is reported as “increased”. Also, in assay [2] (gastrocnemius, aged mice, GB 2 months, p=0.0039 and 0.0003), the “expression level of Trim63 (mRNA and protein)” value was “significant downregulation”. Also, the “expression level of Fbxo32 (mRNA and protein)” value in assay [2] (gastrocnemius, aged mice, GB 2 months, p=0.0078 and 0.0182) is reported as “significant downregulation”. In assay [3], the absolute tetanic force result is “significantly enhanced” and the absolute twitch force entry is listed as “significantly enhanced”. In assay [3] (p=0.0003), the “time to maximum force” value is recorded as “reversed the increased time to maximum force to the youth levels”. Also, in assay [3] (p=0.1161 and 0.1935), the “specific force (normalized to muscle mass)” value was “modest increased”. Besides, the “fatigue resistance or recovery rate” value in assay [3] (p=0.99 at five and ten minutes) is “did not alter”.

The record behind these values is patent US20240299345A1, “GINKGOLIDE B AND ITS DERIVATIVES FOR INHIBITING AND/OR REVERSING AGING” (CHINA MEDICAL UNIVERSITY, priority 2023, published 2024).
